The record followed here is ChEMBL document CHEMBL3352625, “Development of novel neurokinin 3 receptor (NK3R) selective agonists with resistance to proteolytic degradation” (J Med Chem, 2014).

A short description of data set [1]: Agonist activity at goat NK3R. On the set-up: species or system Capra hircus.
The nature of data set [2]: Metabolic stability in goat serum up to 24 hrs by HPLC analysis. Format: ADME, Capra hircus.
The target in data set [3] is NEP 24.11 (neprilysin) (Homo sapiens, UniProt P08473). The data set can be described thus: Drug metabolism assessed as NEP 24.11 (unknown origin)-mediated degradation up to 24 hrs by HPLC analysis. Format: ADME. The settings on record: NEP 24.11 (neprilysin) enzyme, read-out: Drug metabolism.
For data set [4], the system named is Serum. As to the kind of experiment: Metabolic stability in cattle serum up to 24 hrs by HPLC analysis. It counts as ADME, Bos taurus.
A short description of data set [5]: Metabolic stability in pig serum up to 24 hrs by HPLC analysis. It counts as ADME, Sus scrofa.
Data set [6] deals with T1, Neprilysin (Homo sapiens, UniProt P08473). The data set can be described thus: Drug metabolism assessed as NEP 24.11 (unknown origin)-mediated Succinyl-Asp-Phe-MePhe-Gly-OH up to 24 hrs by HPLC analysis. It counts as ADME.
Data set [7] deals with Serum. As to the kind of experiment: Metabolic stability in rat serum up to 24 hrs by HPLC analysis. It counts as ADME, cell-free.
For data set [8], the target named is T1, Neprilysin. The data set can be described thus: Drug metabolism assessed as NEP 24.11 (unknown origin)-mediated H-Leu-Met-NH2 up to 24 hrs by HPLC analysis. Format: ADME.
Data set [9] is described as follows: Induction of GnRH release in ovariectomized goat assessed as induction of multiple-unit activity volley measured as duration of effect at 200 nmol, iv as single dose. Format: functional, Capra hircus.
The nature of data set [10]: Metabolic stability in pig hypothalamic extract by HPLC analysis. Format: ADME, Sus scrofa, Hypothalamus.
Data set [11] is described as follows: Agonist activity at cattle NK3R. On the set-up: species or system Bos taurus.
Data set [12] in a line: Drug metabolism in goat serum assessed as peptide H-Asp-Phe-Phe-MePhe-Gly-Leu-Met-NH2 formation by HPLC analysis. Format: ADME, cell-free, Capra hircus.
A short description of data set [13]: Drug metabolism in pig hypothalamic extract assessed as peptide H-Phe-MePhe-Gly-Leu-Met-OH formation by HPLC analysis. It counts as ADME, Sus scrofa, Hypothalamus.
Data set [14] deals with Serum. As to the kind of experiment: Drug metabolism in cattle serum assessed as peptide H-Asp-Phe-Phe-MePhe-Gly-Leu-Met-NH2 formation by HPLC analysis. Format: ADME, cell-free, Bos taurus.
Data set [15] is described as follows: Drug metabolism in goat serum assessed as peptide H-His-Asp-Phe-Phe-MePhe-Gly-Leu-Met-NH2 formation by HPLC analysis. Format: ADME, cell-free, Capra hircus.
Data set [16] is described as follows: Drug metabolism in pig serum assessed as peptide H-Asp-Phe-Phe-MePhe-Gly-Leu-Met-NH2 formation by HPLC analysis. It counts as ADME, cell-free, Sus scrofa.
The nature of data set [17]: Drug metabolism in pig hypothalamic extract assessed as peptide H-Asp-Phe-Phe-MePhe-Gly-Leu-Met-NH2 formation by HPLC analysis. It counts as ADME, Sus scrofa, Hypothalamus.
Data set [18] relates to Serum. The data set can be described thus: Drug metabolism in cattle serum assessed as peptide H-Phe-MePhe-Gly-Leu-Met-NH2 formation by HPLC analysis. Format: ADME, cell-free, Bos taurus.
The nature of data set [19]: Drug metabolism in pig hypothalamic extract assessed as peptide H-Phe-MePhe-Gly-Leu-Met-NH2 formation by HPLC analysis. It counts as ADME, Sus scrofa, Hypothalamus.
Data set [20] relates to Serum. As to the kind of experiment: Drug metabolism in rat serum assessed as peptide H-Phe-MePhe-Gly-Leu-Met-NH2 formation by HPLC analysis. Format: ADME, cell-free.
A short description of data set [21]: Drug metabolism in goat serum assessed as peptide H-Phe-MePhe-Gly-Leu-Met-NH2 formation by HPLC analysis. It counts as ADME, cell-free, Capra hircus.
Data set [22] in a line: Drug metabolism in pig hypothalamic extract assessed as peptide H-Phe-Phe-MePhe-Gly-Leu-Met-NH2 formation by HPLC analysis. Format: ADME, Sus scrofa, Hypothalamus.
The nature of data set [23]: Drug metabolism in pig serum assessed as peptide H-Phe-MePhe-Gly-Leu-Met-NH2 formation by HPLC analysis. Format: ADME, cell-free, Sus scrofa.
The test system of data set [24] is Serum. The data set can be described thus: Drug metabolism in rat serum assessed as peptide H-Phe-MePhe-Gly-Leu-Met-OH formation by HPLC analysis. It counts as ADME, cell-free.
Data set [25] relates to Serum. As to the kind of experiment: Drug metabolism in cattle serum assessed as peptide H-His-Asp-Phe-Phe-MePhe-Gly-Leu-Met-NH2 formation by HPLC analysis. It counts as ADME, cell-free, Bos taurus.
Data set [26] concerns the target T2, Neuromedin-K receptor (Homo sapiens, UniProt P29371).
T2 sequence (P29371 whole entry): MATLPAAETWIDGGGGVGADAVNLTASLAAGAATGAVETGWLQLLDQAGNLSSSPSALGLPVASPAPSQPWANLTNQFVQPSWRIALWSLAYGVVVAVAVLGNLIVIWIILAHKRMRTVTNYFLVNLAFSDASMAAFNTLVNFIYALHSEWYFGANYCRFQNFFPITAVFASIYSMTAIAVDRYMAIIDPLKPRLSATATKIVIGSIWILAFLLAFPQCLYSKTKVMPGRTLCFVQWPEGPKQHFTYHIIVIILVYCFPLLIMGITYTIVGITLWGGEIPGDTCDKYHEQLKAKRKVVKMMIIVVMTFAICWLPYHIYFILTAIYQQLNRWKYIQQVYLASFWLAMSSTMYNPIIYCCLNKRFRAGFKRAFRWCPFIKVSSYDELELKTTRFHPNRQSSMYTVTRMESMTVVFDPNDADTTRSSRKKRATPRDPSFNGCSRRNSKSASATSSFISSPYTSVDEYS
As to the kind of experiment: Displacement of [125I]His3, MePhe7 from human NK3R expressed in CHO cell membranes by scintillation counting. (Displacement assays read how much labelled ligand stays bound in the presence of the test substance.)

The nature of data set [27]: Drug metabolism in pig hypothalamic extract assessed as peptide H-His-Asp-Phe-Phe-MePhe-Gly-Leu-Met-NH2 formation by HPLC analysis. Format: ADME, Sus scrofa, Hypothalamus.
A short description of data set [28]: Drug metabolism in pig hypothalamic extract assessed as peptide H-Phe-MePhe-Gly-OH formation by HPLC analysis. Format: ADME, Sus scrofa, Hypothalamus.
Data set [29] is described as follows: Drug metabolism in pig hypothalamic extract assessed as peptide H-Met-His-Asp-Phe-Phe-MePhe-Gly-Leu-Met-NH2 formation by HPLC analysis. It counts as ADME, Sus scrofa, Hypothalamus.
Data set [30] addresses T2, Neuromedin-K receptor. As to the kind of experiment: Agonist activity at human NK3R expressed in CHO cells assessed as induction of Ca2+ influx […]. Format: functional, cell-based.
Data set [31] has as its system Serum. The data set can be described thus: Drug metabolism in rat serum assessed as H-His-Asp-Phe-Phe-MePhe-Gly-Leu-Met-NH2 2 formation by HPLC analysis. Format: ADME, cell-free.
For data set [32], the system named is Serum. As to the kind of experiment: Drug metabolism in rat serum assessed as peptide H-Asp-Phe-Phe-MePhe-Gly-Leu-Met-NH2 formation by HPLC analysis. It counts as ADME, cell-free.
Data set [33] is described as follows: Drug metabolism in pig serum assessed as peptide H-His-Asp-Phe-Phe-MePhe-Gly-Leu-Met-NH2 formation by HPLC analysis. Format: ADME, cell-free, Sus scrofa.

Where a SMILES comes first, the peptide text is derived from it. [ ]: non-standard residue; d: D form. NMeF = CN[C@@H](Cc1ccccc1)C(=O)O

T1 sequence (P08473 whole entry): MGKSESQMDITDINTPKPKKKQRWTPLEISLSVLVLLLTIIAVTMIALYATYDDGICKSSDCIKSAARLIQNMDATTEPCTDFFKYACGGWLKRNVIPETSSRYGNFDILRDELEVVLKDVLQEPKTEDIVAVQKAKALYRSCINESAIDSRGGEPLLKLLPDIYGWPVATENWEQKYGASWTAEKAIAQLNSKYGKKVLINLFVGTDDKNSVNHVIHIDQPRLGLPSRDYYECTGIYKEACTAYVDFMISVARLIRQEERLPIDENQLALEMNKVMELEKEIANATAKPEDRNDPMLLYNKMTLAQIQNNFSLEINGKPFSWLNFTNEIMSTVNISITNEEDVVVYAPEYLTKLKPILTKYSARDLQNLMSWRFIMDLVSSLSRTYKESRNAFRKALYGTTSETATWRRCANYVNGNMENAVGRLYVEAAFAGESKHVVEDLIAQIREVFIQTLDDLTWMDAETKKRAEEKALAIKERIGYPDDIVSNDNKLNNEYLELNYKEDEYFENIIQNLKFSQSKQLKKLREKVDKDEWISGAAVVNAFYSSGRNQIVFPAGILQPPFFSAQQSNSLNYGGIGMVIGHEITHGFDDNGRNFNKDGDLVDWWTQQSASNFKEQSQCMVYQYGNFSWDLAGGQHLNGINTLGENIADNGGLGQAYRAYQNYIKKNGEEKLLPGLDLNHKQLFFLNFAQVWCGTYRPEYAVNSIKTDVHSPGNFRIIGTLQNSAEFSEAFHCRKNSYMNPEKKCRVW
Sequence of NEP 24.11 (neprilysin) (P08473 whole entry): as above

For orientation: EC50 means the concentration giving half of the maximal effect. Turning to `CSCC[C@H](NC(=O)[C@H](CC(C)C)NC(=O)CNC(=O)[C@H](Cc1ccccc1)N(C)C(=O)[C@H](Cc1ccccc1)NC(=O)[C@H](CC(=O)O)NC(=O)CCC(=O)O)C(N)=O` [SENKTIDE], the EC50 in [1] was found to be 12 nM; in data set [11], 340 nM. Further, the Stability result in [2], in data set [4], in data set [5], in [7] and in [10] was “Stable” each time. The metabolised at 24 h in [3] is more than 80%. Further, the Drug metabolism entry in data set [6] and in [8] was “metabolite_detected” each time. Moreover, the Time in data set [9] amounted to 60.6 min.

Broadly, the IC50 is the point on the concentration scale where inhibition reaches its midpoint. Read a high IC50 as weaker potency. For `CSCC[C@H](NC(=O)[C@H](CC(C)C)NC(=O)CNC(=O)[C@H](Cc1ccccc1)N(C)C(=O)[C@H](Cc1ccccc1)NC(=O)[C@H](Cc1ccccc1)NC(=O)[C@H](CC(=O)O)NC(=O)[C@H](Cc1cnc[nH]1)NC(=O)[C@H](CCSC)NC(=O)[C@@H](N)CC(=O)O)C(N)=O` (H-DMHDFF[NMeF]GLM-NH2), the Drug metabolism entry in data set [12] is “metabolite_detected”; in [13] it was “metabolite_detected”; in data set [14], “metabolite_detected”; in data set [15] it was “metabolite_detected”; in data set [16] it was “metabolite_detected”; in data set [17], “metabolite_notdetected”. The Drug metabolism result in data set [18] is reported as “metabolite_detected”; in data set [19], “metabolite_detected”; in data set [20], “metabolite_detected”; in [21], “metabolite_detected”; in data set [22], “metabolite_notdetected”; in [23], “metabolite_detected”. Moreover, the Drug metabolism entry in [24] is given as “metabolite_detected”; in [25] it was “metabolite_detected”; in [27], “metabolite_notdetected”; in data set [28] it was “metabolite_detected”; in [29], “metabolite_notdetected”; in data set [31], “metabolite_detected”. Besides, the Drug metabolism entry in [32] and in [33] was “metabolite_detected” throughout. The same compound displayed an IC50 in [26] of 12 nM. For the same compound, the EC50 in [30] was determined as 64 nM.
